From patent publication US20150307520A1, “NOVEL HETEROARYL AND HETEROCYCLE COMPOUNDS, COMPOSITIONS AND METHODS THEREOF” (HUTCHISON MEDIPHARMA LIMITED, priority 2012, published 2015)

Columns and labels:
Type in all cases: biochemical
[1] = target: p110β/p85α (Homo sapiens, UniProt P42338); test: Transcreener KINASE Assay, kinase inhibition of p110β/p85α; conditions: for PI3Kβ IH % @ 1 uM: 1 uM test compound; for IC50: read-out: PI3Kβ IC50
In short: (§1)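 Kinase reactions run 80 min at room temperature, pH buffered with 50 mM HEPES plus 3 mM MgCl2 and 0.03% CHAPS; the PIP2/ATP mix added was 30 uM/10 uM. Generated ADP is then read by FP immunoassay.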

[2] = target: p110δ/p85α (Homo sapiens, UniProt O00329); test: Transcreener KINASE Assay, kinase inhibition of p110δ/p85α; conditions: for PI3Kδ IH % @ 1 uM: 1 uM test compound; for IC50: read-out: PI3Kδ IC50
p110δ/p85α, sequence (O00329 whole entry): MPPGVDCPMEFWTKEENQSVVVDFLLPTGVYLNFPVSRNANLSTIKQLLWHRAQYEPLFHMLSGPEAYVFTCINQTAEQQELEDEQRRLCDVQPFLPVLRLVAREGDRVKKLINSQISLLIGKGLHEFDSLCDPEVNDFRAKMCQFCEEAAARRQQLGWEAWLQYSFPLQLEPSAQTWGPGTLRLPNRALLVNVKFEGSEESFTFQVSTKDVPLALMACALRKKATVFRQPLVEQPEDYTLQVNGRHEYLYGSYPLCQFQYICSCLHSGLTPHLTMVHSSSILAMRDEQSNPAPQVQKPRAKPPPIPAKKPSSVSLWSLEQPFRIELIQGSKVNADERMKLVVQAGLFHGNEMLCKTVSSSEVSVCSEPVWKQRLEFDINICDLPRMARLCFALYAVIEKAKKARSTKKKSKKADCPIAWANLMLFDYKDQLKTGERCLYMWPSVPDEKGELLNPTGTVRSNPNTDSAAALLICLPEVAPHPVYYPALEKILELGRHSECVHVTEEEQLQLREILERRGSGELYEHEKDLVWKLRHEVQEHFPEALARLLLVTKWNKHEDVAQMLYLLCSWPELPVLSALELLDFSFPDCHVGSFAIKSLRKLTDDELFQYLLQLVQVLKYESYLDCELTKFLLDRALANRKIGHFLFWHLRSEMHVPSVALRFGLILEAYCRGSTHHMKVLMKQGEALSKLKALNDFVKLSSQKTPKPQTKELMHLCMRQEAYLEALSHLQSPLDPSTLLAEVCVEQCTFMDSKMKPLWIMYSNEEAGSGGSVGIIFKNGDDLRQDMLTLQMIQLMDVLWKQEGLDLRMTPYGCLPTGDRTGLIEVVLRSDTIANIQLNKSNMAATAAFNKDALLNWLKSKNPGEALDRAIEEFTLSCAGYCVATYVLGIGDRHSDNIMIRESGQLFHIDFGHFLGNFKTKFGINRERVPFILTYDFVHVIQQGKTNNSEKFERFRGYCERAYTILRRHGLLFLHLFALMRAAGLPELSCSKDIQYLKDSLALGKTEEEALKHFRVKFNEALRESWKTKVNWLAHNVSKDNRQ
p110δ/p85α, sequence (P27986 whole entry partner): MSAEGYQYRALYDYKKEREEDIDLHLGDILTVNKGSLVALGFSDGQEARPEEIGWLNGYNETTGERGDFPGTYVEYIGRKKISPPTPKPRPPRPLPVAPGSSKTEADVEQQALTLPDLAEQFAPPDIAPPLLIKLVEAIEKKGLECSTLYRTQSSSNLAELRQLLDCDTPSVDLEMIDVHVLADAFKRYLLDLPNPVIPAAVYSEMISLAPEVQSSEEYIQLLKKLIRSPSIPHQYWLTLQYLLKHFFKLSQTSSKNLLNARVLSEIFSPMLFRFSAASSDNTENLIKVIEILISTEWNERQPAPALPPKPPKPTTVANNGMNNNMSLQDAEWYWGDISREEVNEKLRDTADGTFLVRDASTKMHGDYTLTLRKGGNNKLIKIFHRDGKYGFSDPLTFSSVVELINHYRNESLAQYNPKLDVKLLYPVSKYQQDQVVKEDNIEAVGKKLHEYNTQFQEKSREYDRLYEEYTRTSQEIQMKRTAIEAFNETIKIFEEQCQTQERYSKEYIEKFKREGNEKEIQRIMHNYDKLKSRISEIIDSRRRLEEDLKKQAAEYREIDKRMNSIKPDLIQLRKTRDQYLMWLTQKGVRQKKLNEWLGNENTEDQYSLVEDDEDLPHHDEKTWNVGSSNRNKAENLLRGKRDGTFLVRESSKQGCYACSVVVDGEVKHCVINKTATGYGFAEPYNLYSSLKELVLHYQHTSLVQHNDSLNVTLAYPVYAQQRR
In short: as §1

[3] = target: p110γ (Homo sapiens, UniProt P48736); test: Transcreener KINASE Assay, kinase inhibition of p110γ; conditions: for PI3Kγ IH % @ 1 uM: 1 uM test compound; for IC50: read-out: PI3Kγ IC50
p110γ, sequence (P48736 whole entry): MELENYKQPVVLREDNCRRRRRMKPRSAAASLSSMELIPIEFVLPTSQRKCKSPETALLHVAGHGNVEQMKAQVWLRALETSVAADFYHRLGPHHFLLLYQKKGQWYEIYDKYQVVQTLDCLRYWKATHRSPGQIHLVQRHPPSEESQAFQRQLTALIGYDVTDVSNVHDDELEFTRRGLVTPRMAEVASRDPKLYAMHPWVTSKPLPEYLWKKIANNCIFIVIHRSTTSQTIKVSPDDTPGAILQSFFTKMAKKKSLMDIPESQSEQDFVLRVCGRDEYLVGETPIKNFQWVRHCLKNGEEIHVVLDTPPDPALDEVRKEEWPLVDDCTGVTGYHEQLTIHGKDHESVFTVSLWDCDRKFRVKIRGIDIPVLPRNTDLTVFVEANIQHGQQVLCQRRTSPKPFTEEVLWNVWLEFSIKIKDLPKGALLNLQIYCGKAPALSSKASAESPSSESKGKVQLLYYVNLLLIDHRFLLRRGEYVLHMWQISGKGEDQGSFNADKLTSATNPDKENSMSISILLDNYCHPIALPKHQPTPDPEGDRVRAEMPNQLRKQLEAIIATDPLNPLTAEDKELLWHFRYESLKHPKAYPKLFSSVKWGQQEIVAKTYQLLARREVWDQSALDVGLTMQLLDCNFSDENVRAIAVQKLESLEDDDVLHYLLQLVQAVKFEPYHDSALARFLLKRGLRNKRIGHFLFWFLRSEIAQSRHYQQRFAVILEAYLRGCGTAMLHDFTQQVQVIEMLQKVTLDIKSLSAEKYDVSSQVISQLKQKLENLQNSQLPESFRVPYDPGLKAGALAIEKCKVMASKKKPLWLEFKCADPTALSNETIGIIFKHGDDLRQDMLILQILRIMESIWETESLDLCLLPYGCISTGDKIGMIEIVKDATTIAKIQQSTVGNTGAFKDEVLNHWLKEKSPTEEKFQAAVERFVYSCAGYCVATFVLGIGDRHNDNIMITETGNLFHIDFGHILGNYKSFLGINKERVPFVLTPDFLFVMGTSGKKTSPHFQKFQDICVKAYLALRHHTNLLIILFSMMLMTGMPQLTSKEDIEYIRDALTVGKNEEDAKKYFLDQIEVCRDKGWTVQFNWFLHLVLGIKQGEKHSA
In short: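 FP read-out: far-red competitive immunoassay sensing ADP produced by recombinant p110/p85 or p110γ enzyme. Reaction 80 min RT, then detection mix 60 min RT. IC50 from curve fit.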

p110β/p85α, sequence (P42338 whole entry): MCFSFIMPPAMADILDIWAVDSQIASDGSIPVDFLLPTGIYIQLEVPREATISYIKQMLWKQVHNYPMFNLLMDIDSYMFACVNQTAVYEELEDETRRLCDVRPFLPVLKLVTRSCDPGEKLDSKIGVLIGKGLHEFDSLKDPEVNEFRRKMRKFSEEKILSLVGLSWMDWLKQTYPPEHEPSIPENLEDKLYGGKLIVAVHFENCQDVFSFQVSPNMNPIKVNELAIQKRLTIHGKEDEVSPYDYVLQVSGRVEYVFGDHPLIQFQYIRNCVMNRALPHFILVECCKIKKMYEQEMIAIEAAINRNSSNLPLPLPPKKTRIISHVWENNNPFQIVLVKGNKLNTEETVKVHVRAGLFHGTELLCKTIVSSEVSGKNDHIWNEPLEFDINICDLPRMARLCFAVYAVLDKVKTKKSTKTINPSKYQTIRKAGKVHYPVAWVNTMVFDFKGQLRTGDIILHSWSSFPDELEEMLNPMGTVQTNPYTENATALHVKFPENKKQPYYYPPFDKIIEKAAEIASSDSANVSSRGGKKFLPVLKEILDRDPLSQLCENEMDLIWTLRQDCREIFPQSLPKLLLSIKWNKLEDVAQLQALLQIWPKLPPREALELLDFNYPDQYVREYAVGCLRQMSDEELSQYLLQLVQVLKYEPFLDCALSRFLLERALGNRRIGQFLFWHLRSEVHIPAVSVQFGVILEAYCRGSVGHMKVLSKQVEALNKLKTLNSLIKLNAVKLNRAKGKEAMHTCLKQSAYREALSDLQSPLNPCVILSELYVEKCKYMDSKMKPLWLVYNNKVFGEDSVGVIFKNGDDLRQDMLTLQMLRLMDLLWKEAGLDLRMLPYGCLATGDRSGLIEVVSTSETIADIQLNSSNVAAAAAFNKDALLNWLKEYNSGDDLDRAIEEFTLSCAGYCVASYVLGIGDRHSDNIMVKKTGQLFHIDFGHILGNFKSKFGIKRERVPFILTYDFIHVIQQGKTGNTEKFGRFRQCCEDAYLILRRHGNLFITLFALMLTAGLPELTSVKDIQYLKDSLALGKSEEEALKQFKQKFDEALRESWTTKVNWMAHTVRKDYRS
p110β/p85α, sequence (P27986 2-724 partner): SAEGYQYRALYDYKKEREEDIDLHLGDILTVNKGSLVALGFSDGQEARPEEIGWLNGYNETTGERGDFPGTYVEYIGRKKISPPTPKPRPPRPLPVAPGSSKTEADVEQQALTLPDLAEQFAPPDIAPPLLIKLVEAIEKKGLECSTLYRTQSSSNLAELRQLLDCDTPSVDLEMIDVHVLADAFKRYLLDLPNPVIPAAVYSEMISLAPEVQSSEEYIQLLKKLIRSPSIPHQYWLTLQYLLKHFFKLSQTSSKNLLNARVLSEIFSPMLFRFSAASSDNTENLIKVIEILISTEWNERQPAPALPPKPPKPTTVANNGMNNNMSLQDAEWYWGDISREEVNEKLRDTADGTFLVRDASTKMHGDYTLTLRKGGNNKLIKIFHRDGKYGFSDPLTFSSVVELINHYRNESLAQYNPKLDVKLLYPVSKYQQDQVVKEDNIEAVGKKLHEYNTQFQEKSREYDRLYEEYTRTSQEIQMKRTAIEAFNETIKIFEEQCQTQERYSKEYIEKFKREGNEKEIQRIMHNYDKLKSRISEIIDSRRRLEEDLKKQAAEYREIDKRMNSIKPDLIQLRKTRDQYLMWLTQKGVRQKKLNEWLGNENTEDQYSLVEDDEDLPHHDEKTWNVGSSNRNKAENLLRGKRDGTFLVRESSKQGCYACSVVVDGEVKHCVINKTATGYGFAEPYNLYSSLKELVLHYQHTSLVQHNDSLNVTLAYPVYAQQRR

| PI3Kβ IH % @ 1 uM [1] [%] | PI3Kδ IH % @ 1 uM [2] [%] | IC50 [2] [nM] | PI3Kγ IH % @ 1 uM [3] [%] | IC50 [3] [nM] | IC50 [1] [nM] | SMILES |
| --- | --- | --- | --- | --- | --- | --- |
| 34.5 | 87.2 | 220 | >100 | 179 | – | COc1nc(N)nc(N2CC[C@H]2c2nn3ccc(Cl)c3c(=O)n2-c2ccccc2)c1C#N [Compound 378, (S)-2-amino-4-(2-(5-chloro-4-oxo-3-phenyl-3,4-dihydropyrrolo[2,1-f][1,2,4]triazin-2-yl)azetidin-1-yl)-6-methoxypyrimidine-5-carbonitrile] |
| 76.1 | 100.0 | 1 | 94.3 | 9 | 163 | CC(=O)c1c[nH]c2ncnc(N3CCC[C@H]3c3nn4ccc(Cl)c4c(=O)n3-c3ccccn3)c12 [Compound 340] |
| 1.5 | 82.3 | 211 | 7.6 | – | – | Nc1ncc(C(F)(F)F)c(N2CCC[C@H]2c2nn3ccc(CO)c3c(=O)n2-c2ccccc2)n1 [Compound 178] |
| 22.7 | 85.9 | 60 | >100 | – | – | C#Cc1cnc(N)nc1N1CC[C@H]1c1nn2ccc(Cl)c2c(=O)n1-c1ccccc1 [Compound 224] |
| 14.5 | – | 59 | – | 35 | – | Nc1nc2c(c(N3CC[C@H]3c3nn4ccc(Cl)c4c(=O)n3-c3ccccn3)n1)C(=O)CCN2 [Compound 379] |
| 19.9 | 94.9 | – | 93.5 | – | – | Nc1ncc([N+](=O)[O-])c(N2CC[C@H]2c2nn3ccc(Cl)c3c(=O)n2-c2ccccc2)n1 [Compound 282] |
| 56.0 | 96.4 | 23 | 94.9 | 133 | – | N#Cc1c[nH]c2ncnc(N3CCC[C@H]3c3nn4ccc(Cl)c4c(=O)n3Cc3ncccn3)c12 [Compound 155] |
| 11.2 | 25.7 | – | 82.1 | 68 | – | Nc1nc(N2CC[C@H]2c2nn3ccc(Cl)c3c(=O)n2-c2ccccc2)c2ncccc2n1 [Compound 334] |
| 31.7 | >100 | 58 | 76.1 | 351 | – | C[C@H]1CN(c2nc(N)ncc2C#N)[C@@H]1c1nn2ccc(Cl)c2c(=O)n1-c1ccccn1 [Compound 477] |
| 24.0 | 91.8 | 78 | >100 | – | – | C[C@H]1CN(c2nc(N)ncc2C#N)[C@@H]1c1nn2ccc(C#N)c2c(=O)n1-c1ccccc1 [Compound 501] |
| 32.7 | 95.4 | 7 | 87.9 | 46 | – | C[S+]([O-])c1c[nH]c2ncnc(N3CCC[C@H]3c3nn4ccc(Cl)c4c(=O)n3-c3ccccn3)c12 (single isomer, unassigned) [Compound 389] |
| 8.8 | 87.2 | 110 | 89.3 | 107 | – | N#Cc1c[nH]c2ncnc(N3CCC[C@H]3c3nn4ccc(C5CC5)c4c(=O)n3-c3ccccc3)c12 [Compound 52] |
| 52.9 | 99.1 | 1 | 95.7 | 6 | – | CC(=O)c1c[nH]c2ncnc(NC(C)c3cn4ccc(Cl)c4c(=O)n3-c3cccc(F)c3)c12 (stereo not drawn) [Compound 276] |
| 74.0 | >100 | 20 | 96.6 | – | 311 | C[C@H]1CN(c2ncnc3[nH]cc(C#N)c23)[C@@H]1c1nn2ccc(Cl)c2c(=O)n1-c1ccc(F)cc1 [Compound 468] |
| 29.5 | >100 | 23 | 75.1 | 150 | – | N#Cc1c(N)ncnc1N1CC[C@H]1c1nn2ccc(Br)c2c(=O)n1-c1ccccc1 [Compound 194] |
| 96.1 | >100 | – | 94.8 | – | 17 | CC(Nc1ncnc(N)c1C#N)c1cn2ccc(Cl)c2c(=O)n1-c1ccccc1 (stereo not drawn) [Compound 89] |
| 65.1 | 96.5 | 2 | 91.8 | 3 | – | CC(=O)c1c[nH]c2ncnc(N3C[C@@H](F)C[C@H]3c3nn4ccc(Cl)c4c(=O)n3-c3cccc(F)c3)c12 [Compound 216] |

| PI3Kβ IH % @ 1 uM [1] [%] | PI3Kδ IH % @ 1 uM [2] [%] | IC50 [2] [nM] | PI3Kγ IH % @ 1 uM [3] [%] | IC50 [3] [nM] | IC50 [1] [nM] | SMILES |
| --- | --- | --- | --- | --- | --- | --- |
| 71.3 | >100 | 1 | >100 | 2 | 400 | O=c1c2c(Cl)ccn2nc([C@@H]2CCN2c2ncnc3[nH]cc(C#CCO)c23)n1-c1ccccc1 [Compound 165] |
| −21.1 | 88.0 | 4 | 31.2 | – | – | Nc1ccc(-c2n[nH]c3ncnc(N4CC[C@H]4c4nn5ccc(Cl)c5c(=O)n4-c4ccccc4)c23)cn1 [Compound 169] |
| 59.2 | >100 | 5 | >100 | 30 | – | Nc1nc(N2CCC[C@H]2c2nn3ccc(Cl)c3c(=O)n2-c2ccccc2)n2nccc2n1 [Compound 134, (S)-2-(1-(2-aminopyrazolo[1,5-a][1,3,5]triazin-4-yl)pyrrolidin-2-yl)-5-chloro-3-phenylpyrrolo[2,1-f][1,2,4]triazin-4(3H)-one] |
| 7.9 | 73.9 | 309 | 45.1 | – | – | N#Cc1c[nH]c2ncnc(N3CC[C@H]3c3nn4ccc(Cl)c4c(=O)n3Cc3cccnc3)c12 [Compound 61] |
| 59.6 | >100 | 5 | >100 | 18 | – | N#Cc1cnc(N)nc1N1C[C@@H](F)C[C@H]1c1nn2ccc(F)c2c(=O)n1-c1ccccc1 [Compound 227] |
| 42.2 | 83.4 | 169 | 64.0 | – | – | O=c1c2c(Cl)ccn2nc([C@@H]2CCCN2c2ncnc3[nH]cnc23)n1Cc1ncccn1 [Compound 156] |
| 58.0 | 99.5 | 5 | >100 | 27 | – | Cc1nc(N)nc(N2CC[C@H]2c2nn3ccc(F)c3c(=O)n2-c2ccccc2)c1C#N [Compound 322] |
| 21.6 | 76.1 | 74 | 76.1 | 229 | – | Cc1nc(N)nc(N2CC[C@H]2c2nn3ccc(Cl)c3c(=O)n2-c2ccccc2)n1 [Compound 205] |
| 5 | 37.9 | – | 66.2 | – | – | CC(O)c1cnc(N)nc1N1CC[C@H]1c1nn2ccc(Cl)c2c(=O)n1-c1ccccc1 (stereo partly drawn) [Compound 357, 2-((2S)-1-(2-amino-5-(1-hydroxyethyl)pyrimidin-4-yl)azetidin-2-yl)-5-chloro-3-phenylpyrrolo[2,1-f][1,2,4]triazin-4(3H)-one] |
| −35.9 | 95.9 | 52 | 74.2 | 348 | – | COCc1ccn2nc([C@@H]3CCCN3c3ncnc4[nH]cnc34)n(-c3ccccc3)c(=O)c12 [Compound 149] |
| 14.6 | 33.8 | – | 79.2 | 223 | – | C[S+]([O-])c1n[nH]c2ncnc(N3CC[C@H]3c3nn4ccc(Cl)c4c(=O)n3-c3ccccc3)c12 (stereo partly drawn) [Compound 353] |
| 3.5 | 35.1 | – | 70.3 | – | – | C[S+]([O-])c1cnc(N)nc1N1CC[C@H]1c1nn2ccc(Cl)c2c(=O)n1-c1ccccc1 (stereo partly drawn) [Compound 399] |
| >100 | 94.9 | – | >100 | – | – | CC(Nc1nc(N)nc2c1C(=O)CCN2)c1cn2ccc(F)c2c(=O)n1-c1ccccc1 (single isomer, unassigned) [Compound 407] |
| 45.1 | 92.8 | 52 | 69.0 | 553 | – | O=c1c2c(Cl)ccn2nc([C@@H]2CCCN2c2ncnc3[nH]cnc23)n1CCN1CCOCC1 [Compound 253] |
| 81.7 | 97.4 | 4 | 92.2 | 3 | 89 | CC(=O)c1c[nH]c2ncnc(N3CCC[C@H]3c3nn4ccc(Cl)c4c(=O)n3-c3ccc(F)cc3)c12 [Compound 208] |
| −11.0 | 68.8 | – | 86.4 | 35 | – | Nc1nc(N2CCC[C@H]2c2nn3ccc(C4CC4)c3c(=O)n2-c2ccccc2)c2nc[nH]c2n1 [Compound 53] |
| 55.5 | >100 | 2 | >100 | 9 | – | O=c1c2c(Cl)ccn2nc([C@@H]2CCCN2c2ncnc3[nH]ccc23)n1-c1ccccc1 [Compound 145] |
